# What was measured:
# [1] = molecular target: T1, β-phosphoglucomutase (βPGM WT) (Lactococcus lactis, UniProt P71447); parameters: gene pgmB
# [2] = molecular target: T2, β-phosphoglucomutase (βPGM R49K) (Lactococcus lactis, UniProt P71447, R49K); experiment: enzyme kinetics (kcat/Km), G6PDH coupled assay; […] NMR time course; format: biochemical
# T2 construct: gene pgmB; full length
# [3] = molecular target: T3, β-phosphoglucomutase (βPGM R49A) (Lactococcus lactis, UniProt P71447, R49A); experiment: as above; format: biochemical
# T3 construct: gene pgmB; full length
# [4] = molecular target: T1, β-phosphoglucomutase (βPGM WT); experiment: as above; format: biochemical; parameters: gene pgmB; full length
SMILES,"crystal structure (1.8 Å), open conformation [1]","enzyme kinetics (kcat/Km), G6PDH coupled assay; 31P NMR time course [2]","enzyme kinetics (kcat/Km), G6PDH coupled assay; 31P NMR time course [3]","enzyme kinetics (kcat/Km), G6PDH coupled assay; 31P NMR time course [4]"
"O=P(O)(O)O [Pi, phosphate]",a phosphate anion coordinated in the distal site by the guanidinium group of R49,,,
"O=P(O)(O)O[C@@H]1O[C@H](CO)[C@@H](O)[C@H](O)[C@H]1O [βG1P, β-glucose 1-phosphate]",,0.05 s^–1·μM^–1,0.02 s^–1·μM^–1,0.29 s^–1·μM^–1

# From publication PMC9171722, “An Enzyme with High Catalytic Proficiency Utilizes Distal Site Substrate Binding Energy to Stabilize the Closed State but at the Expense of Substrate Inhibition” (ACS Catalysis, 2022)
